Patent US6599859B1, “Mulch/herbicide composition” (Dow AgroSciences LLC, priority 2001, dated 2003)

Test system: weeds
Assay: Weed control by mulch, dithiopyr and mulch/dithiopyr compositions applied to the ground
Assay type: in vivo
Conditions: dithiopyr alone, no mulch, application rate 560 grams per hectare
From the text: In the following examples, dithiopyr is first dissolved in a warm solvent such as dipropylene glycol at 12-18 percent, by weight. This solution was then sprayed onto a clay carrier.
The results provided by the composition of this invention were compared with the results obtained using the herbicide and the mulch individually.

CSC(=O)c1c(C(F)F)nc(C(F)(F)F)c(C(=O)SC)c1CC(C)C [Dithiopyr, 2-difluoromethyl-4-(2-methylpropyl)-6-trifluoromethyl-3,5-pyridinedicarbothioic acid, S,S-dimethyl ester]
% Weed Control: 30%
